How the values were obtained:
Experiment in all cases: relative viability (nuclei count vs DMSO), 5 days (fraction); higher = more cells survive
[1] = compound: Cn1cc(-c2cnn3c(N)c(Br)c([C@@H]4CCCNC4)nc23)cn1 + CC(=O)c1c(C)c2cnc(Nc3ccc(N4CCNCC4)cn3)nc2n(C2CCCC2)c1=O [Palbociclib] (partner 0.5 µM)
Outline: (§1)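 Values are medians from duplicate plates. Each reflects relative viability, defined as the nuclei count of treated wells over that of vehicle wells. Lung cancer cell lines in 1536-well plates were pin-tool dosed one day after seeding with one drug alone or with a fixed anchor-drug dose plus five library-drug doses (not always all listed) in √10 steps, then fixed, stained and imaged at 4× after 5 days.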

[2] = compound: Cn1cc(-c2cnn3c(N)c(Br)c([C@@H]4CCCNC4)nc23)cn1 + CC(C)C[C@H](NC(=O)[C@H](Cc1ccccc1)NC(=O)c1cnccn1)B(O)O [Bortezomib] (partner 0.002 µM)
Outline: as §1

[3] = compound: Cn1cc(-c2cnn3c(N)c(Br)c([C@@H]4CCCNC4)nc23)cn1 + Cc1nc(Nc2ncc(C(=O)Nc3c(C)cccc3Cl)s2)cc(N2CCN(CCO)CC2)n1 [Dasatinib] (partner 0.075 µM)
Outline: as §1

[4] = compound: Cn1cc(-c2cnn3c(N)c(Br)c([C@@H]4CCCNC4)nc23)cn1 + Cc1nc(NC(=O)N2CCC[C@H]2C(N)=O)sc1-c1ccnc(C(C)(C)C(F)(F)F)c1 [Alpelisib] (partner 2 µM)
Outline: as §1

Cell Line | relative viability ([1]; first compound 0.05 µM) | relative viability ([1]; first compound 0.1581 µM) | relative viability ([1]; first compound 0.5 µM) | relative viability ([1]; first compound 1.581 µM) | relative viability ([1]; first compound 5 µM) | relative viability ([2]; first compound 0.05 µM) | relative viability ([2]; first compound 0.1581 µM) | relative viability ([2]; first compound 0.5 µM) | relative viability ([2]; first compound 1.581 µM) | relative viability ([2]; first compound 5 µM) | relative viability ([3]; first compound 0.05 µM) | relative viability ([3]; first compound 0.1581 µM) | relative viability ([3]; first compound 0.5 µM) | relative viability ([3]; first compound 1.581 µM) | relative viability ([3]; first compound 5 µM) | relative viability ([4]; first compound 0.05 µM) | relative viability ([4]; first compound 0.1581 µM) | relative viability ([4]; first compound 0.5 µM) | relative viability ([4]; first compound 1.581 µM) | relative viability ([4]; first compound 5 µM)
SW 1573 | 0.482 | 0.447 | 0.333 | 0.264 | 0.301 | 1.17 | 1.29 | 1.08 | 0.906 | 1.02 | 0.604 | 0.631 | 0.455 | 0.247 | 0.453 | 0.779 | 1.07 | 0.801 | 0.78 | 0.616
PC-14 | 0.614 | 0.358 | 0.269 | 0.156 | 0.121 | 0.936 | 0.971 | 0.83 | 0.549 | 0.355 | 0.272 | 0.203 | 0.196 | 0.113 | 0.063 | 0.939 | 1.14 | 0.883 | 0.858 | 0.485
COR-L23 | 0.345 | 0.346 | 0.356 | 0.231 | 0.183 | 1.08 | 1.23 | 0.913 | 0.646 | 0.46 | 0.495 | 0.451 | 0.441 | 0.343 | 0.2 | 0.768 | 1.09 | 0.981 | 0.589 | 0.306
HCC-78 | 0.445 | 0.391 | 0.532 | 0.439 | 0.488 | 0.482 | 0.567 | 0.556 | 0.511 | 0.39 | – | 0.384 | 0.388 | 0.398 | 0.295 | 0.365 | 0.334 | 0.372 | 0.354 | 0.289
NCI-H2405 | 0.529 | 0.46 | 0.533 | 0.452 | 0.389 | 0.961 | 1.06 | 1.01 | 0.95 | 0.691 | 0.21 | 0.458 | 0.205 | 0.201 | 0.203 | 0.816 | 0.753 | 0.814 | 0.777 | 0.542
SK-LU-1 | 0.388 | 0.308 | 0.366 | 0.323 | 0.225 | 1.08 | – | 0.866 | 0.486 | 0.202 | 0.173 | 0.132 | 0.148 | 0.164 | 0.118 | 1.19 | – | 0.463 | 0.339 | 0.248
EMC-BAC-2 | 0.533 | 0.52 | 0.527 | 0.445 | 0.43 | 1.04 | 1.14 | 1.13 | 1.02 | 1.15 | 0.315 | 0.328 | 0.333 | 0.342 | 0.25 | 0.778 | 0.885 | 0.66 | 0.708 | 0.81
LCLC-97TM1 | 0.248 | 0.236 | 0.242 | 0.242 | 0.178 | 0.318 | 0.546 | 0.626 | 0.333 | 0.204 | 0.838 | 0.96 | 0.833 | 0.82 | 0.853 | 0.188 | 0.299 | 0.23 | 0.228 | 0.189
H3255 | 0.314 | 0.342 | 0.323 | 0.291 | 0.277 | 0.676 | 0.787 | 0.854 | 0.792 | 0.441 | 0.313 | 0.379 | 0.39 | 0.446 | 0.267 | 0.776 | 0.722 | 0.684 | 0.626 | 0.494
LXF-289 | 0.618 | 0.663 | 0.585 | 0.555 | 0.654 | 1.01 | 1.09 | 0.978 | 0.88 | 0.994 | 0.216 | 0.209 | 0.181 | 0.221 | 0.209 | 1.08 | 1.14 | 1.01 | 1.01 | 1.06
UMC-11 | 0.346 | 0.316 | 0.312 | 0.304 | 0.29 | 0.72 | 0.961 | 0.558 | 0.476 | 0.437 | 0.536 | 0.424 | 0.32 | 0.312 | 0.341 | 1.04 | 1.07 | 0.675 | 0.621 | 0.579
LC-2-ad | 0.499 | 0.515 | 0.441 | 0.435 | 0.483 | 1.03 | 1.15 | 0.938 | 1.06 | 0.935 | 0.486 | 0.544 | 0.504 | 0.327 | 0.458 | 0.873 | 1.04 | 0.837 | 0.917 | 0.838
A-427 | 0.51 | 0.503 | 0.508 | 0.504 | 0.411 | 1 | 0.937 | 1.2 | 0.961 | 0.743 | 0.863 | 0.816 | 0.633 | 0.583 | 0.358 | 1.11 | 1.05 | 1.15 | 0.977 | 1.01
NCI-H322M | 0.424 | 0.458 | 0.452 | 0.463 | 0.393 | 1.2 | 1.32 | 1.22 | 1.21 | 1.26 | 0.268 | 0.279 | 0.268 | 0.231 | 0.245 | 0.765 | 0.799 | 0.863 | 0.756 | 0.678
HCC-366 | 0.399 | 0.463 | 0.359 | 0.267 | 0.3 | 1.03 | 1.2 | 1.06 | 0.734 | 0.334 | 0.644 | 0.562 | 0.628 | 0.467 | 0.22 | 0.439 | 0.539 | 0.493 | 0.368 | 0.156
NCI-H1975 | 0.654 | 0.58 | 0.476 | 0.449 | 0.27 | 0.444 | 0.403 | 0.296 | 0.32 | 0.31 | 0.393 | 0.355 | 0.409 | 0.331 | 0.346 | 0.685 | 0.681 | 0.655 | 0.404 | 0.525
NCI-H1437 | 0.311 | 0.321 | 0.339 | 0.259 | 0.231 | 0.515 | 0.581 | 0.577 | 0.432 | 0.316 | 0.389 | 0.39 | 0.4 | 0.298 | 0.343 | 1.05 | 1.02 | 0.795 | 0.576 | 0.761
NCI-H2009 | 0.237 | 0.177 | 0.185 | 0.18 | 0.113 | 1.01 | 1.06 | 0.972 | 0.834 | 0.826 | 0.3 | 0.291 | 0.257 | 0.219 | 0.216 | 1.17 | 1.25 | 1.09 | 1.09 | 0.849
NCI-H1651 | 0.556 | 0.564 | 0.536 | 0.502 | 0.424 | 0.914 | 0.954 | 0.89 | 0.898 | 0.56 | 0.348 | 0.447 | 0.551 | 0.224 | 0.149 | 1.08 | 1 | 1.01 | 0.479 | 0.434
LCLC-103H | 0.521 | 0.447 | 0.467 | 0.515 | 0.466 | 1.03 | 1.2 | 1.18 | 0.841 | 1.16 | 0.511 | 0.449 | 0.412 | 0.425 | 0.289 | 0.957 | 0.962 | 0.867 | 1.05 | 0.847
NCI-H1666 | 0.674 | 0.654 | 0.649 | 0.615 | 0.618 | 1.09 | 0.804 | 0.786 | 0.802 | 0.721 | 0.818 | 0.734 | 0.642 | 0.756 | 0.785 | 1.02 | 1.01 | 0.853 | 0.807 | 0.785
NCI-H1734 | 0.387 | 0.347 | 0.317 | 0.323 | 0.295 | 1.02 | 1.13 | 0.798 | 0.865 | 0.746 | 0.469 | 0.506 | 0.435 | 0.345 | 0.338 | 0.708 | 0.695 | 0.626 | 0.596 | 0.58
EPLC-272H | 0.294 | 0.312 | 0.311 | 0.273 | 0.25 | 0.853 | 0.891 | 0.933 | 0.769 | 0.82 | 0.34 | 0.339 | 0.333 | 0.286 | 0.162 | 0.93 | 0.902 | 1.01 | 0.956 | 0.824
NCI-H2023 | 0.341 | 0.335 | 0.191 | 0.18 | 0.128 | 1.04 | 0.923 | 0.733 | 0.235 | 0.147 | 0.616 | 0.513 | 0.427 | 0.225 | 0.156 | 0.494 | 0.497 | 0.48 | 0.3 | 0.193
BEN | 0.501 | 0.489 | 0.497 | 0.459 | 0.53 | 0.688 | 0.824 | 0.729 | 0.774 | 0.553 | 0.316 | 0.286 | 0.347 | 0.327 | 0.265 | 0.891 | 1.15 | 1.05 | 0.869 | 0.778
COR-L 105 | 0.411 | 0.367 | 0.385 | 0.41 | 0.386 | 0.757 | 0.721 | 0.768 | 0.613 | 0.611 | 0.318 | 0.336 | 0.341 | 0.29 | 0.309 | 0.962 | 1 | 0.978 | 0.734 | 0.572
ABC-1 | – | 1.06 | 0.872 | 0.452 | 0.718 | 0.364 | 0.284 | 0.298 | 0.331 | 0.287 | 0.479 | 0.561 | 0.497 | 0.484 | 0.301 | 1.14 | 1.03 | 0.814 | 0.917 | 0.401
